Assay results from paper PMC13589290, “Plasmodium falciparum HSP90 inhibitors show divergent resistance despite a shared ATP-binding site” (Cell reports, 2026).

Legend:
HSC82 [1] = molecular target: T1, HSC82 (Saccharomyces cerevisiae, UniProt P15108); assay: fluorescence polarization competition with GA-FITC on purified protein; assay type: binding
T1 construct: N-terminal domain, C-terminal hexahistidine tag

HSC82 [2] = molecular target: T2, HSC82 (Saccharomyces cerevisiae, UniProt P15108, A41S); assay: as above; assay type: binding
T2 construct: N-terminal domain, C-terminal hexahistidine tag

Structure (SMILES) | fluorescence polarization competition with GA-FITC on purified protein (HSC82 [1]) | fluorescence polarization competition with GA-FITC on purified protein (HSC82 [2])
COC1=C2C[C@@H](C)C[C@H](OC)[C@H](O)[C@@H](C)/C=C(\C)[C@H](OC(N)=O)[C@@H](OC)/C=C\C=C(/C)C(=O)NC(=CC1=O)C2=O [Geldanamycin] | GA binding was unaffected by the A41S substitution in yeast HSC82 | GA binding was unaffected by the A41S substitution in yeast HSC82
CCNC(=O)c1noc(-c2cc(C(C)C)c(O)cc2O)c1-c1ccc(CN2CCOCC2)cc1 [AUY-922] | A41S reduced AUY-922 binding affinity in yeast HSC82, as evidenced by a rightward shift in the competition curve | A41S reduced AUY-922 binding affinity in yeast HSC82, as evidenced by a rightward shift in the competition curve
